Holding throughout (test): Temperature shift assay (protein kinases)
Assay type in all cases: binding
What all share (conditions): 10 μM probe; average of three measurements

For one test, the target named is T1, PHGK2 (Homo sapiens, UniProt P15735).
T1 construct: Recombinant protein domains (bromodomain or kinases) at a concentration of 2 μM
T1 sequence (P15735 24-291 limits assumed): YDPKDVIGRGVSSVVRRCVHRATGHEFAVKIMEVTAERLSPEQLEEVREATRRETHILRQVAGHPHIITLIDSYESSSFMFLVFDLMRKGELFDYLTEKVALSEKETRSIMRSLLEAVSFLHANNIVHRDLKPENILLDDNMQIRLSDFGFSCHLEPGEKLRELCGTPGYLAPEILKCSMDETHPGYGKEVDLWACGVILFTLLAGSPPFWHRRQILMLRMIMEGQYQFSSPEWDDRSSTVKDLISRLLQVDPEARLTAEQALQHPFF
How it is done: (§1) Temperature shift assays have been described by Fedorov et al.[46]. Recombinant protein domains (bromodomain or kinases) at a concentration of 2 μM in 10 mM HEPES, pH 7.5, and 500 mM NaCl were mixed with 10 μM of chemical probes. Temperature-dependent protein unfolding profiles were measured using a Real-Time PCR Mx3005p machine (Stratagene).

The next test deals with T2, BMX (Homo sapiens, UniProt P51813).
T2 construct: Recombinant protein domains (bromodomain or kinases) at a concentration of 2 μM
How it is done: as §1

The target in another test is T3, CK2A1 (Homo sapiens, UniProt P68400).
T3 construct: Recombinant protein domains (bromodomain or kinases) at a concentration of 2 μM
T3 sequence (P68400 39-324 limits assumed): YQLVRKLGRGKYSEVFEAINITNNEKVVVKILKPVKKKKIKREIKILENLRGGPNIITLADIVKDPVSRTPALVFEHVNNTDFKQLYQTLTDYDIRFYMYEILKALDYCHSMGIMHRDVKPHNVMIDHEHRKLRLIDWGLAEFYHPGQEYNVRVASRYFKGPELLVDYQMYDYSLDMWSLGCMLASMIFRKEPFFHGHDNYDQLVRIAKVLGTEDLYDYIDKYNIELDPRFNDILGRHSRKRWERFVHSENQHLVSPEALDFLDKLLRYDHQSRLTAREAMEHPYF
How it is done:
as §1

A further test addresses T4, AAK1 (Homo sapiens, UniProt Q2M2I8).
T4 construct: Recombinant protein domains (bromodomain or kinases) at a concentration of 2 μM
The protocol: as §1

For the next test, the system named is RPS6KA1. How it is done: as §1
The target in another test is T5, GSG2 (Homo sapiens, UniProt Q8TF76).
T5 construct: Recombinant protein domains (bromodomain or kinases) at a concentration of 2 μM
T5 sequence (Q8TF76 484-798 limits assumed): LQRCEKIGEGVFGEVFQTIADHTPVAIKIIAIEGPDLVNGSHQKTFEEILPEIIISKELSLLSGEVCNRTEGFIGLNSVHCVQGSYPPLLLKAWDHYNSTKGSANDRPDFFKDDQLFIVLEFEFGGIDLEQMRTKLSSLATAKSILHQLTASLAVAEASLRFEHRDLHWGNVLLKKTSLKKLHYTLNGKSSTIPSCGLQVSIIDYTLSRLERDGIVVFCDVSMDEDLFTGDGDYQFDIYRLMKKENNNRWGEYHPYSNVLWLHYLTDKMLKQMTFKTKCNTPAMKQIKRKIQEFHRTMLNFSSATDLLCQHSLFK
How it is done:
as §1

For another test, the target named is T6, CASK (Homo sapiens, UniProt O14936).
T6 construct: Recombinant protein domains (bromodomain or kinases) at a concentration of 2 μM
T6 sequence (O14936 12-276 limits assumed): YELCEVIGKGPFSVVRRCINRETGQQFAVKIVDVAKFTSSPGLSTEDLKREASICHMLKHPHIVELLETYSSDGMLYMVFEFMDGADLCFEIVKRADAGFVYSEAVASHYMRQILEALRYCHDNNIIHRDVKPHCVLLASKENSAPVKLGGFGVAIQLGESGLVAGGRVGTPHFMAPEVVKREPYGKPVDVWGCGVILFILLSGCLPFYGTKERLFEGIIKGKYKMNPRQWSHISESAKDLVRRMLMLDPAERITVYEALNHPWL
How it is done: as §1

Another test deals with T7, STK10 (Homo sapiens, UniProt O94804).
T7 construct: Recombinant protein domains (bromodomain or kinases) at a concentration of 2 μM
How it is done:
as §1

The target in a further test is T8, CSNK1D (Homo sapiens, UniProt P48730).
T8 construct: Recombinant protein domains (bromodomain or kinases) at a concentration of 2 μM
T8 sequence (P48730 9-277 limits assumed): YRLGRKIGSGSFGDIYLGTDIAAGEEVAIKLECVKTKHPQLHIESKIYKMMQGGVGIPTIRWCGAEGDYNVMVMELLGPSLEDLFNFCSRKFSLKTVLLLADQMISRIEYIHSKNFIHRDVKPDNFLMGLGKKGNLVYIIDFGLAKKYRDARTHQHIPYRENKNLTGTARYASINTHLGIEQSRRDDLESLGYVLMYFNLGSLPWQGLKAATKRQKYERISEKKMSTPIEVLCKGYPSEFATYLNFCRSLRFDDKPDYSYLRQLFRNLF
The protocol:
as §1

For a further test, the target named is T9, ABL1 (Homo sapiens, UniProt P00519).
T9 construct: Recombinant protein domains (bromodomain or kinases) at a concentration of 2 μM
T9 sequence (P00519 242-493 limits assumed): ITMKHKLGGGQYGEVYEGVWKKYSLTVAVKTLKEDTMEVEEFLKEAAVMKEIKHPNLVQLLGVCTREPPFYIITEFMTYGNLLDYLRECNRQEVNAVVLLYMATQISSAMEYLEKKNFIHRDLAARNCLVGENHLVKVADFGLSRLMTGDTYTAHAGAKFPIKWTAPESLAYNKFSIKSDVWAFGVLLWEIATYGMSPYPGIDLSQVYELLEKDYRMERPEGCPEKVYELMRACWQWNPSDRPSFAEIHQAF
How it is done: as §1

For the next test, the target named is T10, MERTK (Homo sapiens, UniProt Q12866).
T10 construct: Recombinant protein domains (bromodomain or kinases) at a concentration of 2 μM
T10 sequence (Q12866 587-858 limits assumed): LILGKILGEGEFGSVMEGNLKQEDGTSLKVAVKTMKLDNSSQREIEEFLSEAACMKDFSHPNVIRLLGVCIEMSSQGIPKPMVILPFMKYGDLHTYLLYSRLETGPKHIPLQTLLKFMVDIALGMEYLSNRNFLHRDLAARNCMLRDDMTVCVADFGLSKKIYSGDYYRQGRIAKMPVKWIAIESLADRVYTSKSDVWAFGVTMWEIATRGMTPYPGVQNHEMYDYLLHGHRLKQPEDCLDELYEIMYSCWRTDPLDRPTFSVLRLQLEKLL
How it is done:
as §1

The target of a further test is T11, PAK4 (Homo sapiens, UniProt O96013).
T11 construct: Recombinant protein domains (bromodomain or kinases) at a concentration of 2 μM
The protocol: as §1

The target of a further test is T12, CAMKK2 (Homo sapiens, UniProt Q96RR4).
T12 construct: Recombinant protein domains (bromodomain or kinases) at a concentration of 2 μM
The protocol:
as §1

A further test deals with T13, GPRK5 (Homo sapiens, UniProt P34947).
T13 construct: Recombinant protein domains (bromodomain or kinases) at a concentration of 2 μM
The protocol: as §1

A further test deals with T14, DYRK1A (Homo sapiens, UniProt Q13627).
T14 construct: Recombinant protein domains (bromodomain or kinases) at a concentration of 2 μM
How it is done: as §1

The target of another test is T15, MAPK1 (Homo sapiens, UniProt P28482).
T15 construct: Recombinant protein domains (bromodomain or kinases) at a concentration of 2 μM
How it is done:
as §1

The next test addresses T16, PIM1 (Homo sapiens, UniProt P11309).
T16 construct: Recombinant protein domains (bromodomain or kinases) at a concentration of 2 μM
The protocol:
as §1

T13 sequence (P34947 186-448 limits assumed, species assumed): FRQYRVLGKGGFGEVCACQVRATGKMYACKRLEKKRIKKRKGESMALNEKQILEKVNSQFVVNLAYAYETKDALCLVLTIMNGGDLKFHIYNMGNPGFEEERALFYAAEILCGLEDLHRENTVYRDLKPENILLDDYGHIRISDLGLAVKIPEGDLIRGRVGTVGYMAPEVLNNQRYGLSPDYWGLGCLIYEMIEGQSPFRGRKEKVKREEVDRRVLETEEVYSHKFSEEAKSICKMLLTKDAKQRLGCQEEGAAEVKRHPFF
T12 sequence (Q96RR4 165-446 limits assumed, species assumed): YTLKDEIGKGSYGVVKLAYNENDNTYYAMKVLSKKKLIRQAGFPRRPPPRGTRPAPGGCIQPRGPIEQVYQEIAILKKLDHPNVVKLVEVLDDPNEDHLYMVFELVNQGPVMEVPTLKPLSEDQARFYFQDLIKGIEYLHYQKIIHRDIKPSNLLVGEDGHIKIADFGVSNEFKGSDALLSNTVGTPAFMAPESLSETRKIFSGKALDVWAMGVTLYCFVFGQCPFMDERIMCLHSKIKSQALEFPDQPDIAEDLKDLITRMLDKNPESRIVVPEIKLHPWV
T2 sequence (P51813 417-675 limits assumed, species assumed): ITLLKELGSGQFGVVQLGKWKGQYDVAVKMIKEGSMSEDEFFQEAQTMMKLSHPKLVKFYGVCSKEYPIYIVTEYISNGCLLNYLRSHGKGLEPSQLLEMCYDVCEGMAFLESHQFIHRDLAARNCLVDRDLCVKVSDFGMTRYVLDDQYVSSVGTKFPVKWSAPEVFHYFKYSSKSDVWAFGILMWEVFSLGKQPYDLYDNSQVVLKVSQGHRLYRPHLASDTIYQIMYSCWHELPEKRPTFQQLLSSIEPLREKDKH
T11 sequence (O96013 321-572 limits assumed, species assumed): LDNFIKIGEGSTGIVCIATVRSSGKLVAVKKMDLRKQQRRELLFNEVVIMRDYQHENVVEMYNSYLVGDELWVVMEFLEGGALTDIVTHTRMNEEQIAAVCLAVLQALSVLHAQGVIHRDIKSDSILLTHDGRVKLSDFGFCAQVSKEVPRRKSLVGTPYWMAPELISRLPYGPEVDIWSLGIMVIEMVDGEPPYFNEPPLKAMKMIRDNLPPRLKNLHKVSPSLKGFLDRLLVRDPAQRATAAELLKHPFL
T16 sequence (P11309 38-290 limits assumed, species assumed): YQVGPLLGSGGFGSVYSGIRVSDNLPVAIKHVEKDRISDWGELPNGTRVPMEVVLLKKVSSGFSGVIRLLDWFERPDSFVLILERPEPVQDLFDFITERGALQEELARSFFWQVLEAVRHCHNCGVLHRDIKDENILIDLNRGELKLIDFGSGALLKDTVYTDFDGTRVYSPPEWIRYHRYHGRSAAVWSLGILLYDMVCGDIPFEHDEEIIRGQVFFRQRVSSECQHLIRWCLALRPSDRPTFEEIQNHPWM
T7 sequence (O94804 36-294 limits assumed, species assumed): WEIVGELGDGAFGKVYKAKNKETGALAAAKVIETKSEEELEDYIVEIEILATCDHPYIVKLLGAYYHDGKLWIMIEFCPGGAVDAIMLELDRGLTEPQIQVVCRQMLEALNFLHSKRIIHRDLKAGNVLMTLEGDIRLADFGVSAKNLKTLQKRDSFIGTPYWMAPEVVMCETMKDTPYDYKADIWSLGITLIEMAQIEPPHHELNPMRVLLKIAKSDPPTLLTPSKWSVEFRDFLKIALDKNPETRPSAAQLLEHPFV
T4 sequence (Q2M2I8 46-315 limits assumed, species assumed): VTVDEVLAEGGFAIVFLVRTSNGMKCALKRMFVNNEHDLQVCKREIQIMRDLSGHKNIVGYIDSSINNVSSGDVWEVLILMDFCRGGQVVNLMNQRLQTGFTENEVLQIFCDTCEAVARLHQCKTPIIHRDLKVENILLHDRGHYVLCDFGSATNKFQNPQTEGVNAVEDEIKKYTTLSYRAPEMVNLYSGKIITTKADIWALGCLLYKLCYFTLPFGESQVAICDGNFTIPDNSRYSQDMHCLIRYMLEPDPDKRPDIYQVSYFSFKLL
T15 sequence (P28482 25-313 limits assumed, species assumed): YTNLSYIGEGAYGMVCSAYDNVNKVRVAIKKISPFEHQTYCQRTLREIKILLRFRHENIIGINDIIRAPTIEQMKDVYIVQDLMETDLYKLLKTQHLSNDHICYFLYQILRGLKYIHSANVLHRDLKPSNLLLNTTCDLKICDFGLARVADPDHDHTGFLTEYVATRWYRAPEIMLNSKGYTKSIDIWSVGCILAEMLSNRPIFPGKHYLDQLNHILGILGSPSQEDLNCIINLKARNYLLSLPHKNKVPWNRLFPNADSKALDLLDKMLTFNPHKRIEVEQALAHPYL

As for `Cc1cc2c(cc1N1C(=O)c3cccc4c(CCCO)ccc(c34)C1=O)n(C)c(=O)n2C` [BAY-299], the Temperature shift at PHGK2 is 0.0 Kelvin; on BMX it was 0.3 Kelvin; on CK2A1 it was -1.4 Kelvin; at AAK1, -0.4 Kelvin; with RPS6KA1, 0.1 Kelvin; on GSG2, 0.1 Kelvin. In addition, the Temperature shift on CASK is -0.1 Kelvin; on STK10, -0.2 Kelvin; on CSNK1D it was 1.2 Kelvin; on ABL1, 0.0 Kelvin; at MERTK it was -0.2 Kelvin; on PAK4 it was -0.1 Kelvin. The Temperature shift at CAMKK2 is reported as -0.4 Kelvin; at GPRK5, -0.3 Kelvin; at DYRK1A it was -0.5 Kelvin; on MAPK1, 0.0 Kelvin; at PIM1, -0.2 Kelvin.
Regarding `CCC(=O)N1CCOc2c(cc(-c3ccc(OC)c(OC)c3)cc2OCC2CCCN(C)C2)C1` (stereo not drawn) [I-CBP112], the Temperature shift on PHGK2 is given as 0.1 Kelvin; on BMX, -0.1 Kelvin; at CK2A1, -1.9 Kelvin; at AAK1 it was -0.7 Kelvin; in the test on RPS6KA1 it was 0.1 Kelvin; at GSG2, 0.1 Kelvin. Further, the Temperature shift on CASK is 0.0 Kelvin; at STK10 it was -0.4 Kelvin; on CSNK1D it was 0.5 Kelvin; on ABL1, 0.0 Kelvin; at MERTK, -0.2 Kelvin; at PAK4, -0.2 Kelvin. In addition, the Temperature shift at CAMKK2 was -0.4 Kelvin; on GPRK5, -0.4 Kelvin; at DYRK1A, -0.4 Kelvin; at MAPK1 it was 0.2 Kelvin; on PIM1 it was -0.1 Kelvin.
For `Cc1nnc2c3ccccc3c(N[C@@H](C)[C@H](c3ccccc3)N(C)C)nn12` [L-Moses], the Temperature shift at PHGK2 was -0.1 Kelvin; on BMX, -0.1 Kelvin; at CK2A1 it was -0.1 Kelvin; at AAK1, -1.6 Kelvin; in the test on RPS6KA1 it was 0.2 Kelvin; at GSG2 it was 0.1 Kelvin. The Temperature shift at CASK is -0.1 Kelvin; on STK10, -0.4 Kelvin; at CSNK1D, 0.6 Kelvin; on ABL1, 0.0 Kelvin; on MERTK it was 0.0 Kelvin; at PAK4, -0.3 Kelvin. For the same compound, the Temperature shift on CAMKK2 was -0.1 Kelvin; on GPRK5, -0.3 Kelvin; at DYRK1A, 0.2 Kelvin; at MAPK1, 0.1 Kelvin; on PIM1, 2.3 Kelvin.
